Measurements taken from the METLIN SMRT retention time set (Domingo-Almenara et al. 2019).

Test: gradient 5% acetonitrile 3 min, to 50% in 2 min, to 85% in 15 min, held 3 min, 100 µL/min
Details: column: Zorbax Extend-C18 2.1 x 50 mm; eluents: water / acetonitrile, 0.1% formic acid
Summary of the method: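 Retention times come from adduct peaks that were picked computationally and then checked by hand. The standards, pure and pooled in mixtures of ~100 molecules, were run on a Zorbax Extend-C18 column (2.1 × 50 mm, 1.8 μm) at 100 μL/min with water and acetonitrile, each with 0.1% formic acid. Detection was by quadrupole time-of-flight mass spectrometry in positive and negative ionization mode, with a dead volume of 40 μL and a dwell volume of 900 μL.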

SMILES | RP-LC retention time
Cn1nnnc1SCCNCc1ccc2c(c1)OCCO2 | 577 s
CCOC(=O)CCC(=O)Nc1ccc(-c2nnc(N(C)c3ccccc3)s2)cc1 | 702 s
CCC(C)NC(=O)Cn1nc2c(Oc3ccccc3)nc3ccccc3n2c1=O (configuration not stated) | 895 s
CCOC(=O)c1c(C)oc2nc(C)nc(N(C)Cc3ccccc3)c12 | 1150 s
Cc1ccc(C(=O)Nc2cnc(-c3ccc(Cl)cc3)nc2)s1 | 1130 s
COc1cccc(-c2csc(Cc3nc(-c4ccccc4Cl)no3)n2)c1 | 1150 s
O=C(c1cn2c(n1)CCCC2)N1CCN(c2ccc(Cl)cc2)CC1 | 648 s
Cc1ccn2cc(-c3ccc(NC(=O)c4ccc(Br)o4)cc3)nc2n1 | 647 s
CCOc1cccc(-c2noc(-c3nnn4c3COC(c3ccc(C)cc3C)C4)n2)c1 (configuration not stated) | 643 s
Cc1nc(N2CCN(c3ccccn3)CC2)c2c3c(sc2n1)CCC3 | 569 s
Cc1ccc(CC(=O)N2CCc3nc(-c4ccc(Cl)cc4)ncc3C2)cc1 | 1150 s
Cc1cc(C)cc(Nc2c(-c3cc(Br)ccc3O)nc3ncccn23)c1 | 1140 s
Cn1nccc1-c1cccc(-c2noc(-c3ccccc3Br)n2)c1 | 1180 s
COc1ccc(CN(CCN(C)C)c2ncccn2)cc1 | 707 s
COc1ccc(-c2noc(C3CCCN3C(=O)c3ccccc3OC)n2)cc1OC (configuration not stated) | 834 s
O=C(Cn1ccn2nc(-c3ccccc3)c(CO)c2c1=O)Nc1ccc2c(c1)CCC2 | 906 s
CCc1nnc([C@@H]2CC(F)(F)CN2C(=O)COc2ccc(F)cc2)o1 | 800 s
COc1ccc2c(c1)C1(CCN(S(=O)(=O)c3ccc(F)cc3F)C1)C(=O)N2C (configuration not stated) | 927 s

SMILES | RP-LC retention time
CCOc1ccccc1-n1ccn(Cc2nc(-c3ccc(C(C)(C)C)cc3)no2)c(=O)c1=O | 699 s
CSc1ccc(-c2nc3cnccn3c2Nc2cccc(C(=O)NC3CCCCC3)c2)cc1 | 892 s
COc1cccc(CN2CCC(N3CC4(CCCCC4)C3c3ccccc3)CC2)c1OC (configuration not stated) | 624 s
Fc1cc(F)cc(-c2noc3ncnc(N4CCN(c5ccccn5)CC4)c23)c1 | 678 s
Cc1nn(CC(=O)NCCc2c[nH]c3ccccc23)c(=O)c2noc(C)c12 | 708 s
CC(C)c1cc(C(=O)Nc2cccc(F)c2)nc2ccnn12 | 1140 s
COCCNC(=O)COc1nc(C)nc2onc(-c3ccc(F)cc3)c12 | 782 s
CCc1cccc(NC(=O)Cc2csc3nc(-c4ccc(C)c(C)c4)cn23)c1 | 962 s
CNC(=O)C1CN(C(=O)Nc2ccccc2C(F)(F)F)CC12CCCC2 (configuration not stated) | 734 s
O=C(CCNc1c(-c2ccccc2)nc2cnccn12)N1CCC(N2CCCCC2)CC1 | 552 s
CCn1cc(C)c(C(=O)O)c1CC(=O)NCCCN1CCOCC1 | 588 s
CC(C)Cn1cc(S(=O)(=O)Nc2cc(F)cc(F)c2)c2cccnc21 | 994 s
Cc1nc(-c2ccncc2)nc2c1CCC(=O)N2Cc1ccco1 | 666 s
CCc1nnc([C@@H]2CC(F)(F)CN2C(=O)c2coc(C)n2)o1 | 678 s
O=C1C2N=NN(Cc3nc(-c4ccccc4)no3)C2C(=O)N1c1ccc(F)cc1 (configuration not stated) | 945 s
Cc1cc(C(=O)N2CC(F)(F)C[C@H]2c2nc(C)no2)on1 | 723 s
CCNC(=O)c1nc(Nc2ccc(CC)cc2)c2ccccc2n1 | 756 s
O=C([C@@H]1C[C@H](Oc2ccccc2)CN1C(=O)c1n[nH]c2ccccc12)N1CCCC1 | 802 s

Next, values leading:

RP-LC retention time | SMILES
788 s | Cn1c(=O)sc2cc(S(=O)(=O)N3CCC(C(=O)NCc4cccs4)CC3)ccc21
830 s | O=C(c1ccoc1)N1CCC(N2CCc3ccccc32)CC1
856 s | Cc1ccc(CNC(=O)C2(C)CN(S(C)(=O)=O)CC(=O)N2CCc2ccccc2)cc1 (configuration not stated)
787 s | COc1ccc(CC(=O)N2CCC3(CC2)NC(=O)c2ccc(Cl)cc2N3)cc1
946 s | O=C(c1cccn1Cc1noc(C2CC2)n1)N1CCN(c2ccccc2)CC1
902 s | CCCn1c(=O)c2sc(N3CCCC3)nc2n(CC(=O)Nc2cc(F)cc(F)c2)c1=O
710 s | O=C(NCc1cccc(F)c1)C1CCN(c2nnc3ccc(Cl)cn23)CC1
641 s | Cc1cc(=O)n(CC(=O)Nc2cc(F)ccc2F)c(N2CCCC2)n1
926 s | Cc1sc(NC(=O)Cc2ccccc2)nc1-c1ccc2c(c1)N(C)C(=O)CO2
765 s | O=C(NCCc1cccs1)C1CCN(c2cnn(Cc3ccccc3)c(=O)c2)CC1
815 s | O=S(=O)(c1cccnc1)N1CC(F)(F)C[C@H]1c1nc(C2CC2)no1
693 s | Cc1oc(-c2[nH]ncc2C(=O)N(C)C)cc1S(=O)(=O)NCc1ccccc1Cl
866 s | Cc1cc(S(=O)(=O)N2CCCC(Cn3cnc4cccnc43)C2)ccc1Cl (configuration not stated)
735 s | O=C(Nc1cccc(Cl)c1)Nc1cnn(-c2ncncc2N2CCOCC2)c1
958 s | COc1ccc(Cl)cc1S(=O)(=O)N(C)C1CCc2nn(CC3CC3)c(=O)n2CC1 (configuration not stated)
592 s | Cc1cnc(C2CCC2)n1CC1CCN(C(=O)C2(c3ccccc3)CC2)CC1
840 s | COc1ccc(C(=O)NCc2cccnc2OC)c(OC)n1
904 s | COC(=O)CNC(c1ccccc1)c1cc(C)ccc1NS(=O)(=O)c1ccc(C)cc1 (configuration not stated)
944 s | CCOC(=O)C1CCN(c2ncnc3c2cnn3-c2ccccc2)CC1
841 s | COc1ccc(OC)c(S(=O)(=O)N2CCCC(C(=O)NCc3ccccc3)C2)c1 (configuration not stated)
942 s | COc1cn(-c2ccc(F)cc2)nc1C(=O)NCCC1=CCCCC1
724 s | CN1c2cc(F)ccc2C(=O)NC12CCN(C(=O)NCc1ccccc1)CC2
843 s | O=C(CN1C(=O)CCS(=O)(=O)c2ccccc21)Nc1ccc(C(F)(F)F)cc1
985 s | Cc1cccc(CNC(=O)C2CCN(S(=O)(=O)c3ccc4c(c3)sc(=O)n4C(C)C)CC2)c1
917 s | CCn1cc(-c2ccc(F)cc2)cc1C(=O)NC1CC1
604 s | COc1cccc(CN2CC[C@@H]3CN(S(C)(=O)=O)[C@@H]3C2)c1OC

RP-LC retention time | SMILES
973 s | CCN1CCCc2cc(C(=O)NCc3ccc(OC)cc3OC)sc21
724 s | O=C(NCc1ccccc1Cl)C1COCC(=O)N1Cc1ccccc1 (configuration not stated)
773 s | COc1ccc(OC)c(NC(=O)N2CCC(N3CCN(Cc4ccc(F)cc4)C(=O)C3=O)CC2)c1
821 s | COc1cccc(CNC(=O)C2CCCN2S(=O)(=O)c2ccc3c(c2)C(C)(C)C(=O)N3C)c1 (configuration not stated)
564 s | Cc1cnc(C2CCN(S(=O)(=O)c3ccccc3)C2)n1C(C)C (configuration not stated)
683 s | COc1ccc(-c2onc(C)c2C)cc1S(=O)(=O)N1CCN(c2ccccn2)CC1
810 s | CCC(CC)NC(=O)C1CCN(c2nc3ccc(-c4cncnc4)nc3s2)CC1
844 s | Cc1ccc(NC(=O)C2CCCN2S(=O)(=O)c2cc3c(cc2Cl)NC(=O)CO3)cc1F (configuration not stated)
771 s | CCc1cc(=O)n(CC(=O)Nc2cccc(Cl)c2C)c(N2CCOCC2)n1
1200 s | COc1ccc(CNC(=O)C2CCCN(c3nc4c(s3)c(C)nn4-c3ccc(Cl)cc3)C2)cc1 (configuration not stated)
644 s | O=C(NCc1cccs1)C1CCN(c2nc3ccc(Cl)cc3[nH]2)CC1
806 s | COc1ccc(S(=O)(=O)N2CCC(c3nc(C(=O)N(C)C)c(C)o3)CC2)cc1Cl
734 s | CCC(C(=O)N1CCN(c2ccccn2)CC1)n1ccc2cc(S(=O)(=O)N3CCCCC3)ccc21 (configuration not stated)
693 s | CCOc1ccc2ncc(S(=O)(=O)c3ccc(C)c(C)c3)c(N3CCN(CC)CC3)c2c1
805 s | CCn1cc(S(=O)(=O)N2CCCn3nc(-c4ccc(OC)cc4)cc3C2)cn1
1290 s | Cc1ccc(Sc2nccnc2N2CCC(C(=O)N3CCN(c4ccc(C)cc4)CC3)CC2)cc1
953 s | Cn1c(=O)sc2cc(S(=O)(=O)N3CCC(C(=O)Nc4cccc(Cl)c4)CC3)ccc21
860 s | O=C(NC1CCCCC1)C1c2ccccc2C(=O)N1Cc1ccc2c(c1)OCO2 (configuration not stated)
671 s | O=C1CCCC(=O)N1CCS(=O)(=O)N1CCC(c2nnc(-c3ccco3)s2)CC1
676 s | O=C(Nc1sc2c(c1C(c1cccnc1)N1CCN(c3ccccn3)CC1)CCCC2)c1ccco1 (configuration not stated)
870 s | CC1=C(c2ccc(Cl)cc2)S(=O)(=O)N=C1N1CCC(C(=O)NCCc2ccco2)CC1
1050 s | Cc1ccc2ncn(C3CCN(S(=O)(=O)c4cc(C)c(C)cc4C)CC3)c(=O)c2c1
677 s | Cc1ccc(NC(=O)N2CCN(c3cc(C)nc(N4CCCC4)n3)CC2)cc1
654 s | Cc1nnc(NC(=O)CSc2nnc(-c3cccs3)o2)s1
1020 s | CCC(c1cccs1)N1C(=O)[C@H]2CN(S(=O)(=O)c3ccc(F)c(F)c3)C[C@H]2C1=O (some centres not stated)
